Tests used:
[1] = system: Rat; experiment: concentration in brain after dosing; conditions: 0.2 h; dosed: 2-Methyltetrahydrofuran; 40 mg/kg; iv; Male; Harlan Sprague Dawley
[2] = system: Rat; experiment: concentration in brain after dosing; conditions: 1.5 h; dosed: 2-Methyltetrahydrofuran; 40 mg/kg; iv; Male; Harlan Sprague Dawley
[3] = system: Rat; experiment: concentration in plasma after dosing; conditions: 0.75 h; dosed: 2-Methyltetrahydrofuran; 40 mg/kg; iv; Male; Harlan Sprague Dawley
[4] = system: Rat; experiment: concentration in plasma after dosing; conditions: 2 h; dosed: 2-Methyltetrahydrofuran; 40 mg/kg; iv; Male; Harlan Sprague Dawley
[5] = system: Rat; experiment: concentration in plasma after dosing; conditions: 7 min; dosed: 2-Methyltetrahydrofuran; 40 mg/kg; iv; Male; Harlan Sprague Dawley
[6] = system: Rat; experiment: concentration in plasma after dosing; conditions: 2 min; dosed: 2-Methyltetrahydrofuran; 40 mg/kg; iv; Female; Harlan Sprague Dawley
[7] = system: Rat; experiment: concentration in brain after dosing; conditions: 0.5 h; dosed: 2-Methyltetrahydrofuran; 40 mg/kg; iv; Female; Harlan Sprague Dawley
[8] = system: Rat; experiment: concentration in plasma after dosing; conditions: 0.25 h; dosed: Perfluorohexanoic Acid; 40 mg/kg; iv; Male; F344
[9] = system: Rat; experiment: concentration in liver after dosing; conditions: 1 h; dosed: Perfluorohexanoic Acid; 80 mg/kg; oral; Male; Harlan Sprague Dawley
[10] = system: Rat; experiment: concentration in plasma after dosing; conditions: dosed: Perfluorohexanoic Acid, 80 mg/kg, oral, Male, Harlan Sprague Dawley
[11] = system: Rat; experiment: concentration in plasma after dosing; conditions: dosed: Perfluorohexanoic Acid, 40 mg/kg, iv, Male, F344
[12] = system: Rat; experiment: concentration in plasma after dosing; conditions: dosed: Perfluorohexanoic Acid, 40 mg/kg, oral, Male, Harlan Sprague Dawley
[13] = system: Rat; experiment: concentration in plasma after dosing; conditions: 1 h; dosed: Perfluorohexanoic Acid; 80 mg/kg; oral; Male; Harlan Sprague Dawley
[14] = system: Rat; experiment: concentration in kidney after dosing; conditions: 3 h; dosed: Perfluorohexanoic Acid; 80 mg/kg; oral; Female; Harlan Sprague Dawley
[15] = system: Rat; experiment: concentration in liver after dosing; conditions: 0.5 h; dosed: Perfluorohexanoic Acid; 80 mg/kg; oral; Male; Harlan Sprague Dawley
[16] = system: Rat; experiment: concentration in plasma after dosing; conditions: 2 h; dosed: Gemfibrozil; 50 mg/kg; oral; Male; Sprague-Dawley
[17] = system: Rat; experiment: concentration in plasma after dosing; conditions: 4 h; dosed: Gemfibrozil; 100 mg/kg; oral; Male; Sprague-Dawley
[18] = system: Rat; experiment: concentration in plasma after dosing; conditions: 5 min; dosed: Gemfibrozil; 4.29 mg/kg; oral; Male; Sprague-Dawley
[19] = system: Rat; experiment: concentration in plasma after dosing; conditions: 10 min; dosed: Gemfibrozil; 50 mg/kg; oral; Male; Sprague-Dawley
[20] = system: Rat; experiment: concentration in plasma after dosing; conditions: 4 h; dosed: Gemfibrozil; 50 mg/kg; oral; Male; Sprague-Dawley
[21] = system: Rat; experiment: concentration in kidney after dosing; conditions: 6 h; dosed: Perfluorooctane Sulfonate; 2 mg/kg; oral; Female; Harlan Sprague Dawley
[22] = system: Rat; experiment: concentration in kidney after dosing; conditions: 864 h; dosed: Perfluorooctane Sulfonate; 2 mg/kg; oral; Female; Harlan Sprague Dawley
[23] = system: Rat; experiment: concentration in liver after dosing; conditions: 6 h; dosed: Perfluorooctane Sulfonate; 2 mg/kg; oral; Female; Harlan Sprague Dawley
[24] = system: Rat; experiment: concentration in kidney after dosing; conditions: 24 h; dosed: Perfluorooctane Sulfonate; 2 mg/kg; oral; Female; Harlan Sprague Dawley
[25] = system: Rat; experiment: concentration in liver after dosing; conditions: 864 h; dosed: Perfluorooctane Sulfonate; 2 mg/kg; oral; Female; Harlan Sprague Dawley
[26] = system: Rat; experiment: concentration in kidney after dosing; conditions: 6 h; dosed: Perfluorooctane Sulfonate; 20 mg/kg; oral; Male; Harlan Sprague Dawley
[27] = system: Rat; experiment: concentration in plasma after dosing; conditions: dosed: Perfluorooctane Sulfonate, 2 mg/kg, iv, Female, Harlan Sprague-Dawley
[28] = system: Rat; experiment: concentration in kidney after dosing; conditions: 1848 h; dosed: Perfluorooctane Sulfonate; 2 mg/kg; oral; Female; Harlan Sprague Dawley
[29] = system: Rat; experiment: concentration in liver after dosing; conditions: 3360 h; dosed: Perfluorooctane Sulfonate; 20 mg/kg; oral; Male; Harlan Sprague Dawley
[30] = system: Rat; experiment: concentration in kidney after dosing; conditions: 24 h; dosed: Perfluorooctane Sulfonate; 2 mg/kg; oral; Female; Harlan Sprague Dawley; remark: listed apart in the source
[31] = system: Rat; experiment: concentration in kidney after dosing; conditions: 864 h; dosed: Perfluorooctane Sulfonate; 2 mg/kg; oral; Female; Harlan Sprague Dawley; remark: listed apart in the source
[32] = system: Rat; experiment: concentration in plasma after dosing; conditions: dosed: Perfluorooctane Sulfonate, 2 mg/kg, oral, Female, Harlan Sprague Dawley
[33] = system: Rat; experiment: concentration in brain after dosing; conditions: 6 h; dosed: Perfluorooctane Sulfonate; 20 mg/kg; oral; Male; Harlan Sprague Dawley
[34] = system: Rat; experiment: concentration in liver after dosing; conditions: 1848 h; dosed: Perfluorooctane Sulfonate; 2 mg/kg; oral; Female; Harlan Sprague Dawley
[35] = system: Rat; experiment: concentration in brain after dosing; conditions: 3 h; dosed: Fluorotelomer alcohol 8+2; 24 mg/kg; oral; Male; Harlan Sprague Dawley
[36] = system: Rat; experiment: concentration in plasma after dosing; conditions: dosed: 678-39-7, 12 mg/kg, iv, Male, F344
[37] = system: Rat; experiment: concentration in brain after dosing; conditions: 3 h; dosed: Fluorotelomer alcohol 8+2; 80 mg/kg; oral; Female; Harlan Sprague Dawley
[38] = system: Rat; experiment: concentration in kidney after dosing; conditions: 3 h; dosed: Fluorotelomer alcohol 8+2; 80 mg/kg; oral; Female; Harlan Sprague Dawley
[39] = system: Rat; experiment: concentration in liver after dosing; conditions: 0.5 h; dosed: Fluorotelomer alcohol 8+2; 80 mg/kg; oral; Female; Harlan Sprague Dawley
[40] = system: Rat; experiment: concentration in plasma after dosing; conditions: 3 h; dosed: Fluorotelomer alcohol 8+2; 12 mg/kg; oral; Male; Harlan Sprague Dawley

CC1CCCO1 (stereo not drawn) [2-Methyltetrahydrofuran]
Conditions	concentration in brain [ng/mL]	concentration in plasma [ng/mL]
[1]	24900	–
[2]	7300	–
[3]	–	22000
[4]	–	13900
[5]	–	48100
[6]	–	55300
[7]	13800	–

O=C(O)C(F)(F)C(F)(F)C(F)(F)C(F)(F)C(F)(F)F [Perfluorohexanoic Acid]
Conditions	concentration in kidney [ng/g]	concentration in liver [ng/g]	concentration in plasma [ng/mL]
[8]	–	–	7150
[9]	–	83600	–
[13]	–	–	146000
[14]	38000	–	–
[15]	–	67900	–

Conditions	concentration in plasma [ng/mL]
[10], 5 min	35400
[10], 9 h	3240
[11], 0.5 h	14500
[11], 12 h	35.7
[12], 0.75 h	46400
[12], 12 h	6500

Cc1ccc(C)c(OCCCC(C)(C)C(=O)O)c1 [Gemfibrozil]
Conditions	concentration in plasma [ng/mL]
[16]	1970
[17]	7120
[18]	893
[19]	110000
[20]	2860

O=S(=O)([O-])C(F)(F)C(F)(F)C(F)(F)C(F)(F)C(F)(F)C(F)(F)C(F)(F)C(F)(F)F [Perfluorooctane Sulfonate]
Conditions	concentration in brain [ng/g]	concentration in kidney [ng/g]	concentration in liver [ng/g]
[21]	–	9250	–
[22]	–	3490	–
[23]	–	–	24500
[24]	–	4940	–
[25]	–	–	11100
[26]	–	63800	–
[28]	–	2450	–
[29]	–	–	29800
[30]	–	5720	–
[31]	–	3420	–
[33]	4440	–	–
[34]	–	–	6900

concentration in plasma [ng/mL]
Conditions	1 h	5 min	192 h	1200 h	2376 h
[27]	4320	–	3170	–	542
[32]	–	27.5	3830	1210	–

O=C(O)CCC(F)(F)C(F)(F)C(F)(F)C(F)(F)C(F)(F)C(F)(F)C(F)(F)F [Fluorotelomer acid 7+3]
Conditions	concentration in brain [ng/g]	concentration in kidney [ng/g]	concentration in liver [ng/g]	concentration in plasma [ng/mL]
[35]	440	–	–	–
[37]	1580	–	–	–
[38]	–	5620	–	–
[39]	–	–	2020	–
[40]	–	–	–	726

[36]
Conditions	concentration in plasma [ng/mL]
0.5 h	167
9 h	164

Source: EPA's CvTdb concentration-time database
